This is an account of results in patent publication US11504379B2, “Amide compound, and Pin1 inhibitor, therapeutic agent for inflammatory diseases and therapeutic agent for cancer that use the same” (Hiroshima University, priority 2017, dated 2022).

Molecules are shown by their SMILES.

For one assay, the target named is T1, Pin1 (Homo sapiens, UniProt Q13526).
T1 construct: endogenous in cells; host or cells: 293T cells
The assay can be described thus: Cell-based Pin1 inhibition assay with AMPK phosphorylation level as index (293T cells). More on the design: key: +++: a higher level of AMPK phosphorylation is promoted, as compared with C1; ++: a similar level of AMPK phosphorylation is promoted, as compared with C1; +: a lower level of AMPK phosphorylation is promoted, as compared with C1; −: no or almost no promotion is found in AMPK phosphorylation. Particulars: compound at 100 μM for 30 minutes, then 10 mM 2-DG for one hour, pAMPK blot compared with C1. Here is the method: To evaluate the inhibitory activity of each compound synthesized in Example 1 against the function of Pin1, a cell-based assay was performed according to the method previously developed by the inventors (Yusuke Nakatsu et al., Journal of Biological Chemistry, 2015, Vol. 290, No. 40, pp. 24255-24266), in which the phosphorylation level of AMPK (AMP-activated protein kinase), a protein whose phosphorylation is inhibited by Pin1, was examined as an index.
Briefly, 293T cells were plated on a collagen-coated 24-well plate. Forty-eight hours later, each compound synthesized in the preceding example (at 100 μM) was added to the plate, and the plate was left to stand in an incubator for 30 minutes. Subsequently, 10 mM 2-DG was added to the plate, and one hour later, each sample was collected with a buffer containing mercaptoethanol and SDS.
SDS-PAGE and blotting were performed, and blocking was then performed with 3% BSA for 1 hour, according to conventional protocols. Subsequently, a pAMPK antibody (Cell Signaling; diluted 1:2000 in Can Get Signal Solution 1, Toyobo) as a primary antibody, and an HRP-linked anti rabbit IgG (GE Healthcare; diluted 1:4000 in Can Get Signal Solution 2, Toyobo) as a secondary antibody were allowed to react at ambient temperature for 1 hour prior to detection.
The inhibitory activity against the function of Pin1 was evaluated by comparing the inhibition levels between each compound and a known Pin1 inhibitor, C1, as indicated below: […]

In the next assay the test system is colon cancer model mice. Kind of assay: Colon cancer model mice (AOM/DSS) treatment study. The assay is classed as in vivo. Particulars: oral 1.25 mg/kg/day three times a week from Day 6, dissected on Day 89, versus control. Here is the method:
Colon cancer model mice were produced by intraperitoneal administration of azoxymethane (AOM) at a dose of 12 mg/kg to laboratory mice on Day 1, and then starting a course consisting of 5-day oral administration of 3% sodium dextran sulfate (DSS) and 16-day no DSS administration, on Day 6, and repeating the course 4 times, to induce colon inflammation and subsequent cancer development.
On Day 89, the colon cancer model mice were dissected to count the number of developed colon cancer tissues and to measure tumor area occupied by a single colon cancer tissue (total tumor area/tumor tissue number).

The test system of a further assay is DU145 cells. The assay can be described thus: Cancer treatment study, DU145 tumors implanted in nude mice. Format: in vivo, nude mice (BALB/c-slc-nu/nu mice). As to conditions: intraperitoneal 2.5 mg/kg/day, 5 times a week, 9 weeks, compared to control mice; for tumor size growth, first tumor (tumor volume ratio): FIG. 4 (A); for tumor size growth, second tumor (volume): FIG. 4 (B). As to the method: An animal experiment was performed using mice transplanted with cancer cells to test the therapeutic effects of the compounds according to the present invention on cancer.
A first tumor (DU145 cells) with Matrigel plug was implanted in the middle of the upper back of nude mice (BALB/c-slc-nu/nu mice).
Five weeks after the first implantation, a second tumor (DU145 cells) was implanted in the middle of the left and right sides of the back of the nude mice.
No compound was administered to a group of mice to prepare control mice.
The volume of the second tumor was so small and not measurable at the beginning of administration of each compound. Therefore, the result from the second tumor is expressed in volume (mm^3), but not in ratio.

Assay [1] relates to NASH mice (methionine-choline-deficient diet). The assay can be described thus: NASH treatment study in MCDD-fed NASH mice, liver sections with Azan staining. The assay is classed as in vivo, mice (C57BL/6J). As to conditions: NASH mice given a MCDD, 8 weeks; intraperitoneal 2.5 mg/kg/day three times a week; FIG. 3 (C). Here is the method: Next, an animal experiment was performed on NASH mice that were produced by feeding a methionine-choline-deficient diet (MCDD).

Assay [2] has as its system non-alcoholic steatohepatitis (NASH) model mice (HFDT). Kind of assay: NASH treatment study in HFDT-fed NASH model mice. As to conditions: for increase in liver weight / blood ALT (GPT) value, index of liver inflammation: HFDT NASH mice, 8 weeks; for increase in liver weight: FIG. 1 (A); for blood ALT (GPT) value, index of liver inflammation: FIG. 1 (B). As to the method: Animal experiments were performed using non-alcoholic steatohepatitis (NASH) model mice to test the compounds according to the present invention for the therapeutic effect on NASH.
NASH model mice (hereinafter referred to as “NASH mice”) were produced by feeding a high-fat diet containing trans fatty acids (HFDT) to individual male laboratory mice (C57BL/6J) for 8 weeks. […] In addition, a normal diet was given to individual male laboratory mice (C57BL/6J) for 8 weeks to prepare control mice.

The subject of assay [3] is mice with induction of colitis. Particulars: oral administration; cited from earlier work.
The mark [4] stands for this setting: intraperitoneal 2.5 mg/kg/day or oral 5.0 mg/kg/day, three times a week.

T1 sequence (Q13526 whole entry): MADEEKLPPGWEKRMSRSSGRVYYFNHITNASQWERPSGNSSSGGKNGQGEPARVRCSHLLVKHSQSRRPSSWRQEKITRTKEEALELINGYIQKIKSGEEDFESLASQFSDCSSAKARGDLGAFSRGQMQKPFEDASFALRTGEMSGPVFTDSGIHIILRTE

Regarding `O=C(N[C@H](Cc1ccc2ccccc2c1)C(=O)OCc1ccccc1)C1c2ccccc2-c2ccccc21` [Compound H-105], the Pin1 inhibition activity entry on Pin1 is reported as “−”.

Regarding `O=C(O)[C@@H](Cc1ccc2ccccc2c1)NC(=O)n1c2ccccc2c2ccccc21` [Compound H-163], the “number of colon cancer tissues” value with colon cancer model mice is listed as “no significant difference”. Moreover, the “tumor area occupied by a single colon cancer tissue” value with colon cancer model mice (FIG. 5) is “reduction in tumor area”. Also, in the assay with DU145 cells, the “tumor size growth, first tumor (tumor volume ratio)” value was “suppressed” and the “tumor size growth, second tumor (volume)” value is recorded as “suppressed”. In assay [1], the “fat accumulation in liver tissue (microscopic observation)” value is “significantly reduced fat accumulation” and the “hepatic fibrosis (Azan staining)” value is “significantly inhibited”. Further, on Pin1, the Pin1 inhibition activity entry is on record as “++”. Besides, in assay [2] (setting [4]), the “increase in liver weight” value is “significantly reduced” and the “blood ALT (GPT) value, index of liver inflammation” value is listed as “decreased”. Besides, the “fat accumulation in liver tissue (microscopic observation)” value in assay [2] (NASH mice given a HFDT, FIG. 2 (C)) is given as “significantly reduced fat accumulation”. As for `COC(=O)[C@@H](Cc1ccc2ccccc2c1)NC(=O)Cn1c2ccccc2c2ccccc21` [Compound H-521], the Pin1 inhibition activity result on Pin1 is “+”. As for `O=C(Nc1ccc(C(=O)c2ccccc2)cc1)N[C@H](Cc1ccc2ccccc2c1)C(=O)O` [Compound H-341], the Pin1 inhibition activity entry at Pin1 is recorded as “++”. `O=C(O)[C@@H](Cc1ccc2ccccc2c1)NC(=O)N1c2ccccc2CCc2ccccc21` [Compound H-178]: at Pin1, the Pin1 inhibition activity entry was “+++”. Turning to `O=C1C=CC(=O)c2c(O)cccc21` [Juglone, reference compound], in assay [3], the colitis development result is given as “prevention of colitis development”. Besides, the “increase in liver weight” value in assay [2] (oral 5.0 mg/kg/day three times a week) is on record as “significantly reduced”. For the compound `O=C(CC1c2ccccc2-c2ccccc21)N[C@H](Cc1ccc2ccccc2c1)C(=O)O` [Compound H-103], the Pin1 inhibition activity result on Pin1 is listed as “+++”. For the compound `COc1ccc(-c2cc(C(=O)N[C@H](Cc3ccc4ccccc4c3)C(=O)O)c(C)o2)cc1` [Compound C1, (R)-2-(5-(4-methoxyphenyl)-2-methylfuran-3-carboxamido)-3-(naphthalene-6-yl)propanoic acid], the colitis development result in assay [3] is on record as “prevention of colitis development”.

In the case of `O=C(Cc1ccc2ccccc2c1)N[C@H](Cc1ccc2ccccc2c1)C(=O)O` [Compound H-158], at Pin1, the Pin1 inhibition activity result was “++”. Consider `O=C(Nc1ccccc1Oc1ccccc1)N[C@H](Cc1ccc2ccccc2c1)C(=O)O` [Compound H-334], for which, on Pin1, the Pin1 inhibition activity entry is “+++”. As to `COC(=O)c1ccc2cc(C(=O)N[C@H](Cc3ccc4ccccc4c3)C(=O)O)ccc2c1` [Compound H-62], on Pin1, the Pin1 inhibition activity entry is given as “+”. Still for that read-out and setting: with `O=C(Cn1c2ccccc2c2ccccc21)N[C@H](Cc1ccc2ccccc2c1)C(=O)O` [Compound H-536] the entry was “+”.

`O=C(O)[C@@H](Cc1ccc2ccccc2c1)NC(=O)N1c2ccccc2Oc2ccccc21` [Compound H-162]: the Pin1 inhibition activity result at Pin1 is “++”.

With `O=C(O)[C@@H](Cc1ccc2ccccc2c1)NC(=O)C1(O)c2ccccc2-c2ccccc21` [Compound H-101], on Pin1, the Pin1 inhibition activity entry is on record as “++”.

Take `O=C(N[C@H](Cc1ccc2ccccc2c1)C(=O)O)OCc1ccccc1` [Compound H-65, reference compound]: the Pin1 inhibition activity result at Pin1 is “−”.

As for `O=C(O)[C@@H](Cc1ccc2ccccc2c1)NC(=O)N1c2ccccc2C=Cc2ccccc21` [Compound H-164], the Pin1 inhibition activity result on Pin1 was “+”. As for `COC(=O)[C@@H](Cc1ccc2ccccc2c1)NC(=O)n1c2ccccc2c2ccccc21` [Compound H-144], in the assay on DU145 cells, the “tumor size growth, first tumor (tumor volume ratio)” value is on record as “suppressed” and the “tumor size growth, second tumor (volume)” value was “suppressed”. Further, in assay [2] (setting [4]), the “increase in liver weight” value is “significantly reduced” and the “blood ALT (GPT) value, index of liver inflammation” value is “decreased”. As to `O=C(O)[C@@H](Cc1ccc2ccccc2c1)NC(=O)N(c1ccccc1)c1ccccc1` [Compound H-161], on Pin1, the Pin1 inhibition activity result is “++”. The same measure, in the same setting: under `O=C(N[C@H](Cc1ccc2ccccc2c1)C(=O)O)C1c2ccccc2-c2ccccc21` [Compound H-109] stands “+++”.
